# Measured values from article PMC3434256 (Journal of the American Chemical Society, 2012).
# “And” between values parts separate entries of the source, which are not always exact repeats. Equal values may be shown once. Read-outs that look alike come from different tables or passages of the source. Marks after values point to notes of the source that are not given here.
# How the values were obtained:
# [1] = Nonenzymatic C-6 deuterium exchange catalyzed by deuterioxide ion in D2O; conditions: for kDO, second-order rate constant for deuterioxide-ion-catalyzed deuterium exchange at C-6: D2O; for kDO, second-order rate constant for deuterioxide-ion-catalyzed deuterium exchange at C-6 / kHO, second-order rate constant for proton transfer from C-6 to hydroxide ion: 25 °C; for kHO, second-order rate constant for proton transfer from C-6 to hydroxide ion: H2O, calculated from kDO using kDO/kHO = 2.4; for (Keq)aq, equilibrium constant for proton transfer from C-6 to a primary amine base of pKRNH3 = 7 in water: eq 12, pKCH of model nucleosides uridine and 5-fluorouridine
# ScOMPDC [2] = conditions: cited from earlier work; for Kd: read-out: (Kd)obsd, observed affinity of ScOMPDC, pH 7.2, H2O
# [3] = cited from earlier work
# [4] = molecular target: T1, yeast orotidine 5′-monophosphate decarboxylase (ScOMPDC) (Saccharomyces cerevisiae, UniProt P03962, A160S/C155S/N267D/S2H); conditions: for kex, turnover number for deuterium exchange into enzyme-bound substrate / kex/Kd, second-order rate constant for enzyme-catalyzed deuterium exchange / (kex)max, intrinsic first-order rate constant (turnover number) for deuterium exchange into saturating substrate bound to the deprotonated enzyme: I = 0.1 (NaCl); for kex/Kd, second-order rate constant for enzyme-catalyzed deuterium exchange: ratio of kex and Kd; for free energy of binding to form the Michaelis complex: deprotonated enzyme; for (Keq)enz, equilibrium constant for proton transfer from C-6 of bound nucleotide to ScOMPDC: eq 11, krot = 10^7 s^−1; for Kd′/Kd, ratio of dissociation constants from protonated and deprotonated enzyme: from pKE - pKES; for stabilization of enzyme-bound vinyl carbanion relative to bound nucleotide: lower limit; for (kex)max, intrinsic first-order rate constant (turnover number) for deuterium exchange into saturating substrate bound to the deprotonated enzyme: pD-rate profile of kex fit to eq 7, D2O, 25 °C
# [5] = pKa of the N-3 hydron, spectrophotometric; format: physicochemical
# [6] = pKa of the phosphoryl group by titration; format: physicochemical; conditions: D2O, I = 0.1, estimated from UMP pKa in H2O plus 0.5 unit
# [7] = molecular target: T1, yeast orotidine 5′-monophosphate decarboxylase (ScOMPDC); test: biochemical
# ScOMPDC [8] = conditions: pH 7.1, 25 °C; cited from earlier work
# [9] = aqueous solution; cited from earlier work
# [10] = titration, H2O, 25 °C, I = 0.1; cited from earlier work
# T1 sequence (P03962 whole entry S2H/C155S/A160S/N267D): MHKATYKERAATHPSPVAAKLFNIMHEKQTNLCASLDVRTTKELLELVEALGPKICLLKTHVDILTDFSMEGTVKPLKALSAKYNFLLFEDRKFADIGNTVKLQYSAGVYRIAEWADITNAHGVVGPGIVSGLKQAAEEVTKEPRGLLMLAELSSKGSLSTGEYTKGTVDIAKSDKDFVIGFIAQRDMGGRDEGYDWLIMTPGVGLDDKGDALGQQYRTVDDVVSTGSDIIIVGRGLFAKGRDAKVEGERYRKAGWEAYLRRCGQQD
smiles,measurement,setting,value
Cn1cc(F)c(=O)n(C)c1=O,"kDO, second-order rate constant for deuterioxide-ion-catalyzed deuterium exchange at C-6",[1],0.043 M⁻¹ s⁻¹
same,"kHO, second-order rate constant for proton transfer from C-6 to hydroxide ion",[1],0.018 M⁻¹ s⁻¹
O=c1ccn([C@H]2C[C@H](O)[C@@H](COP(=O)(O)O)O2)c(=O)[nH]1 [2′-deoxyuridine 5′-monophosphate],Kd,ScOMPDC [2],170 µM
"O=c1[nH]c(=O)n(C2OC(CO)C(O)C2O)cc1F (stereo not drawn) [5-Fluorouridine N-3 Anion, 5-fluorouridine N-3 anion]","kDO, second-order rate constant for deuterioxide-ion-catalyzed deuterium exchange at C-6",[1],6.8e-05 M⁻¹ s⁻¹
same,"kHO, second-order rate constant for proton transfer from C-6 to hydroxide ion",[1],2.8e-05 M⁻¹ s⁻¹
"O=c1[nH]c(=O)n([C@@H]2O[C@H](CO)[C@@H](O)[C@H]2O)cc1F [5-Fluorouridine, 5-fluorouridine]","kDO, second-order rate constant for deuterioxide-ion-catalyzed deuterium exchange at C-6",[1],1.7 M⁻¹ s⁻¹
same,"kHO, second-order rate constant for proton transfer from C-6 to hydroxide ion",[1],0.71 M⁻¹ s⁻¹
same,"ko = kHO[HO^−], observed rate constant for C-6 deprotonation by hydroxide ion","[1]; water, pH 7.1",9e-08 s⁻¹
O=c1[nH]c(=O)n([C@H]2C[C@H](O)[C@@H](COP(=O)(O)O)O2)cc1F [5-fluoro-2′-deoxyuridine 5′-monophosphate],pKa of the N-3 proton (pKNH),"[3]; H2O, 25 °C, I = 0.1",7.90
same,Kd,ScOMPDC [2],250 µM
O=c1[nH]c(=O)n([C@H]2C[C@H](O)[C@@H](CO)O2)cc1F [5-fluoro-2′-deoxyuridine],pKa of the N-3 proton,"[3]; H2O, 25 °C, I = 0.1",7.67
"O=c1cnn([C@@H]2O[C@H](COP(=O)(O)O)[C@@H](O)[C@H]2O)c(=O)[nH]1 [6-aza-UMP, 6-azauridine 5′-monophosphate]",deuterium exchange into UMP (2 mM) in the presence of inhibitor,"[4]; 2 mM 6-aza-UMP, 260 μM ScOMPDC, 2 days, pD 9.3, 25 °C",no detectable deuterium exchange
same,Ki,"ScOMPDC [2]; pH 7.2, competitive inhibitor",0.093 µM
"O=c1[nH]c(=O)n([C@@H]2O[C@H](COP(=O)(O)O)[C@@H](O)[C@H]2O)cc1F [F-UMP, 5-fluorouridine 5′-monophosphate]",pKa,[5]; buffered D2O,8.37 ± 0.05
same,pKa,[5]; buffered H2O,7.84 ± 0.03
same,"pKSD2, ionization of the phosphoryl group",[6],6.8
same,decrease in pKa of the side chain of Lys-93 upon binding (pKE - pKES),[4],1.4 unit
same,transition state stabilization for deuterium exchange,[4],14 kcal/mol
same,"kex, turnover number for deuterium exchange into enzyme-bound substrate","[4]; D2O, pD 6.45, 25 °C, fit to eq 5",0.00818 s⁻¹
same,"kex/Kd, second-order rate constant for enzyme-catalyzed deuterium exchange","[4]; D2O, pD 6.45, 25 °C",8.3 M⁻¹ s⁻¹
same,"kex, turnover number for deuterium exchange into enzyme-bound substrate","[4]; D2O, pD 7.03, 25 °C, fit to eq 5",0.0169 s⁻¹
same,"kex/Kd, second-order rate constant for enzyme-catalyzed deuterium exchange","[4]; D2O, pD 7.03, 25 °C",33 M⁻¹ s⁻¹
same,"kex, turnover number for deuterium exchange into enzyme-bound substrate","[4]; D2O, pD 7.37, 25 °C, fit to eq 5",0.0242 s⁻¹
same,"kex/Kd, second-order rate constant for enzyme-catalyzed deuterium exchange","[4]; D2O, pD 7.37, 25 °C",140 M⁻¹ s⁻¹
same,"kex, turnover number for deuterium exchange into enzyme-bound substrate","[4]; D2O, pD 7.64, 25 °C, fit to eq 5",0.0324 s⁻¹
same,"kex/Kd, second-order rate constant for enzyme-catalyzed deuterium exchange","[4]; D2O, pD 7.64, 25 °C",300 M⁻¹ s⁻¹
same,kex for deuterium exchange,"[4]; D2O, pD 8.15, 25 °C, I = 0.10 (NaCl), fit of kobsd/[E] to eq 4",0.048 s⁻¹
same,"kex, turnover number for deuterium exchange into enzyme-bound substrate","[4]; D2O, pD 8.15, 25 °C, fit to eq 5",0.0438 s⁻¹
same,"kex/Kd, second-order rate constant for enzyme-catalyzed deuterium exchange","[4]; D2O, pD 8.15, 25 °C",400 M⁻¹ s⁻¹
same,"kex, turnover number for deuterium exchange into enzyme-bound substrate","[4]; D2O, pD 9.33, 25 °C, fit to eq 5",0.0384 s⁻¹
same,"kex/Kd, second-order rate constant for enzyme-catalyzed deuterium exchange","[4]; D2O, pD 9.33, 25 °C",200 M⁻¹ s⁻¹
same,stabilization of the transition state for deuterium exchange by the 5-fluoro substituent,[4]; F-UMP vs UMP,4.8 kcal/mol
same,"pKE, pKa of the essential residue at the free enzyme",[4]; Saccharomyces cerevisiae,8.5 ± 0.2 ^d
same,"pKES, pKa of the essential residue (Lys-93) at the E•S complex",[4]; Saccharomyces cerevisiae,7.1 ± 0.1 ^f
same,free energy of binding to form the Michaelis complex,[4],6.4 kcal/mol
same,"(Keq)enz, equilibrium constant for proton transfer from C-6 of bound nucleotide to ScOMPDC",[4],4.1 × 10^−9
same,"Kd′/Kd, ratio of dissociation constants from protonated and deprotonated enzyme",[4],25
same,stabilization of enzyme-bound vinyl carbanion relative to bound nucleotide,[4],at least 13 kcal/mol
same,"(kex)max, intrinsic first-order rate constant (turnover number) for deuterium exchange into saturating substrate bound to the deprotonated enzyme",[4],0.041 s⁻¹
same,total enzymatic rate acceleration for deuterium exchange,[4]; ratio of (kex)max/Kd and ko for 5-fluorouridine at pH 7.1,3e+10 M⁻¹
same,Kd,[7],140 µM
same,"(Keq)aq, equilibrium constant for proton transfer from C-6 to a primary amine base of pKRNH3 = 7 in water",[1],8 × 10^−19
"O=C(O)c1cc(=O)[nH]c(=O)n1[C@@H]1O[C@H](COP(=O)(O)O)[C@@H](O)[C@H]1O [OMP, orotidine 5′-monophosphate]",kcat for decarboxylation,ScOMPDC [8],15 s⁻¹
same,"ko, nonenzymatic decarboxylation",[9],2.8e-16 s⁻¹
same,pKa of the phosphoryl group,[10],6.38
"O=c1ccn([C@@H]2O[C@H](COP(=O)(O)O)[C@@H](O)[C@H]2O)c(=O)[nH]1 [UMP, uridine 5′-monophosphate]",decrease in pKa of the side chain of Lys-93 upon binding (pKE - pKES),[4],0.5 unit
same,"kex, turnover number for deuterium exchange into enzyme-bound substrate","[4]; D2O, pD 7.03, 25 °C, average of kobsd[UMP]o/[E]",1.2e-06 s⁻¹
same,"kex, turnover number for deuterium exchange into enzyme-bound substrate","[4]; D2O, pD 7.58, 25 °C, average of kobsd[UMP]o/[E]",3.19e-06 s⁻¹
same,"kex, turnover number for deuterium exchange into enzyme-bound substrate","[4]; D2O, pD 8.13, 25 °C, average of kobsd[UMP]o/[E]",7.53e-06 s⁻¹
same,"kex, turnover number for deuterium exchange into enzyme-bound substrate","[4]; D2O, pD 9.34, 25 °C, average of kobsd[UMP]o/[E]",1.15e-05 s⁻¹
same,free energy of binding to form the Michaelis complex,[4],6.4 kcal/mol
same,"(Keq)enz, equilibrium constant for proton transfer from C-6 of bound nucleotide to ScOMPDC",[4],1.2 × 10^−12
same,"Kd′/Kd, ratio of dissociation constants from protonated and deprotonated enzyme",[4],3
same,stabilization of enzyme-bound vinyl carbanion relative to bound nucleotide,[4],at least 13 kcal/mol
same,hydrolysis of the 5′-phosphoryl group during exchange reaction,[4]; pD 7.0,up to 19%
same,hydrolysis of the glycosidic bond to give uracil during exchange reaction,[4]; pD 7.0,up to 24%
same,hydrolysis of the 5′-phosphoryl group to give uridine during exchange reaction,[4]; pD 7.6 – 9.3,up to 4%
same,"(kex)max, intrinsic first-order rate constant (turnover number) for deuterium exchange into saturating substrate bound to the deprotonated enzyme",[4],1.2e-05 s⁻¹
same,pKa of the N-3 proton (pKNH),"[3]; H2O, 25 °C, I = 0.1",9.7
same,pKNH,"[3]; ref Jencks, Regenstein, Handbook of Biochemistry and Molecular Biology 1976",9.5
same,pKa of the phosphoryl group,[10],6.26 and 6.3
same,"(Keq)aq, equilibrium constant for proton transfer from C-6 to a primary amine base of pKRNH3 = 7 in water",[1],2 × 10^−22
"O=c1ccn([C@@H]2O[C@H](CO)[C@@H](O)[C@H]2O)c(=O)[nH]1 [Uridine N-3 Anion, uridine N-3 anion]","kDO, second-order rate constant for deuterioxide-ion-catalyzed deuterium exchange at C-6",[1],1.5e-08 M⁻¹ s⁻¹
same,"kHO, second-order rate constant for proton transfer from C-6 to hydroxide ion",[1],6.3e-09 M⁻¹ s⁻¹
"O=c1ccn([C@@H]2O[C@H](CO)[C@@H](O)[C@H]2O)c(=O)[nH]1 [Uridine, uridine]","kHO, second-order rate constant for proton transfer from C-6 to hydroxide ion",[1],0.00016 M⁻¹ s⁻¹
O=C[C@H](O)[C@H](O)[C@H](O)COP(=O)(O)O [ribose 5′-monophosphate],pKa of the phosphoryl group,[10],6.25
